Experiments:
[1] = Binding affinity to target base T of 5'-TCC AGX GCA AC-3'/3'_AGG TCT CGT TG-5' 11 mer duplex DNA containing abasic site at 10 uM by fluorescence quenching measurement
[2] = Binding affinity to target base C of 5'-TCC AGX GCA AC-3'/3'_AGG TCC CGT TG-5' 11 mer duplex DNA containing abasic site assessed as melting temperature at 150 uM by spectrophotometric analysis relative to control
[3] = Binding affinity to target base C of 5'-TCC AGX GCA AC-3'/3'_AGG TCC CGT TG-5' 11 mer duplex DNA containing abasic site assessed as melting temperature at 150 uM by spectrophotometric analysis
[4] = Binding affinity to target base G of 5'-TCC AGX GCA AC-3'/3'_AGG TCG CGT TG-5' 11 mer duplex DNA containing abasic site assessed as melting temperature at 150 uM by spectrophotometric analysis
[5] = Binding affinity to target base A of 5'-TCC AGX GCA AC-3'/3'_AGG TCA CGT TG-5' 11 mer duplex DNA containing abasic site assessed as melting temperature at 150 uM by spectrophotometric analysis relative to control
[6] = Binding affinity to target base C of 5'-TCC AGX GCA AC-3'/3'_AGG TCC CGT TG-5' 11 mer duplex DNA containing abasic site at 10 uM by fluorescence quenching measurement
[7] = Binding affinity to target base T of 5'-TCC AGX GCA AC-3'/3'_AGG TCT CGT TG-5' 11 mer duplex DNA containing abasic site assessed as melting temperature at 150 uM by spectrophotometric analysis
[8] = Binding affinity to target base G of 5'-TCC AGX GCA AC-3'/3'_AGG TCG CGT TG-5' 11 mer duplex DNA containing abasic site assessed as melting temperature at 150 uM by spectrophotometric analysis relative to control
[9] = Binding affinity to target base T of 5'-TCC AGX GCA AC-3'/3'_AGG TCT CGT TG-5' 11 mer duplex DNA containing abasic site assessed as melting temperature at 150 uM by spectrophotometric analysis relative to control
[10] = Binding affinity to target base A of 5'-TCC AGX GCA AC-3'/3'_AGG TCA CGT TG-5' 11 mer duplex DNA containing abasic site assessed as melting temperature at 150 uM by spectrophotometric analysis

SMILES	Activity [1]	ΔTm [2]	Tm [3]	Tm [4]	ΔTm [5]	Activity [6]	Tm [7]	ΔTm [8]	ΔTm [9]	Tm [10]
Nc1nc2[nH]c(=O)cnc2c(=O)[nH]1	51.7%	4.5 °C	33.7 °C	33.6 °C	2.2 °C	43.5%	32.7 °C	-0.4 °C	4.8 °C	36 °C
Cn1c(=O)cnc2c(=O)[nH]c(N)nc21		5.9 °C	35.1 °C	34.9 °C	0.2 °C	72%	29.7 °C	0.9 °C	1.8 °C	34 °C
Cn1c(N)nc2[nH]c(=O)cnc2c1=O	72.9%	0.4 °C	29.6 °C	34.9 °C	1.8 °C		33.9 °C	0.9 °C	6 °C	35.6 °C

From ChEMBL document CHEMBL1139253, “Effect of methyl substitution in a ligand on the selectivity and binding affinity for a nucleobase: a case study with isoxanthopterin and its derivatives” (Bioorg Med Chem, 2009)
